# Assays:
# [1] = test system: CD8 T cell (CTL) responses to particulate HIV gp120 antigen; test: CTL priming after co-injection of adjuvant with gp120/latex beads (51Cr-release CTL assay); assay type: in vivo, Balb/c mice
# Method: Immunization of mice with antigen-polystyrene beads (2-10 μg) +/− cytosolic fractions and assays for the priming of CTL were performed as previously described ^16. Fractions from the GF-250 column were injected without further manipulation, while fractions from all other columns were dried and reconstituted to normal osmolarity before injection. Fractions from 1%-10% of liver cytosol were typically injected into mice. Pooled fractions without adjuvant activity were standardly used as negative controls. For in vitro stimulation, splenocytes from immunized mice were stimulated directly with 10^−8 M peptide (RGPGRAFVTL-SEQ ID NO: 1 or SIINFEKL-SEQ ID NO: 2) and were then assayed as previously described.^16
# Each four consecutive fractions (4 minutes) were pooled and tested for their ability to augment the priming of CD8 T cell responses when co-injected with particulate HIV gp120 antigen. After 14 days, splenocytes were harvested from the primed animals and were stimulated ex vivo with either antigen-transfected or peptide-pulsed syngeneic cells. The re-stimulated cells were then assayed for their ability to kill antigen-bearing target cells in a standard ^51Cr-release as say.^16
# To further evaluate this point, highly purified uric acid was tested for adjuvant activity. Highly purified uric acid (50 μg), highly purified LMW fraction from a C18 column, or PBS as control were mixed with 5 μg gp120/latex beads in 100 μl of saline and injected into two Balb/c mice. CTL from these mice were assayed for killing of 15.12 (gp120-transfected 3T3) cells (filled triangles), or vector-transfected control 3T3 cells (open squares). Results from individual mice are presented (FIG. 3A-C, wherein % Lysis indicates the degree of cell killing and the E:T ratio indicates the ratio of Effector cell:Target cell, e.g., the ratio of cytotoxic T-cell: antigen positive target cell).
# To determine more precisely the amount of uric acid necessary to provide an adjuvant effect in vivo, the amount of uric acid injected into mice was titrated from 2.5-40 μg (in 100 μl; from a concentration of 25-400 μg/ml) and adjuvant activity assayed as described in Example II above. […] This amount of uric acid is produced by about 2×10^6 UV-treated 3T3 cells (See FIG. 3J).
# To further evaluate the activity of xanthine crystals, xanthine crystals were tested for adjuvant activity in experiments carried out similarly to those described in Example II above. Highly purified uric acid (500 μg), highly purified xanthine (500 μg), or PBS as control were mixed with 2 μg gp120/latex beads in 100 μl of saline and injected into two Balb/c mice. CTL from these mice were assayed for killing of 15.12 (gp120-transfected 3T3) cells (filled squares). Results from individual mice are presented (FIG. 6A-C), wherein % Lysis indicates the degree of cell killing and the E:T ratio indicates the ratio of Effector cell:Target cell, e.g., the ratio of cytotoxic T-cell:antigen presenting cell.
# dendritic cells = test: Expression of CD80 and CD86 on dendritic cells from TLR4+/+ or TLR4-/- mice; assay type: cell-based, C57BL/6 (TLR4+/+) or C.C3H lps-d (TLR4-/-) mice; settings: 6 hours
# Method: (§1) Bone marrow was cultured for 7 days in media containing 10 u/ml of both GM-CSF and IL-4, as previously described.^24 Fresh media (50% volume) containing cytokines was added at the 4th day of culture. At day 7, floating cells were removed by aspiration after gentle rocking, and soluble or crystalline uric acid was added. Following a 6 hour incubation, the media was gently removed and replaced with PBS containing either 0.5% heparin (sigma) or 0.5 μM polyvinyl sulfate (100 KD, Sigma) in order to detach bound crystals. Following a 10 minute incubation, cells were gently removed by scraping, washed once in 50 ml of media and 3 times with 50 ml of PBS in order to dissolve any remaining crystals, and then stained and assayed by flow cytometry as previously described.^15 To quantify MSU crystal formation in culture, a parallel set of wells was prepared without dendritic cells, and the crystals harvested by centrifugation, washed with absolute alcohol and dissolved in 0.1N NaOH. The amount of uric acid in the solubilized precipitates was determined by measuring UV absorption at 292 nm against a set of standard uric acid/NaOH solutions.
# As discussed in Example III, LPS has a stimulatory activity and is frequently a contaminant of reagents. Dendritic cells from the TLR4-null mice were examined to verify that LPS was not the source of the observed stimulatory activity.
# EL4 cells = test: Uric acid measurement in the cytosol of treated cells; assay type: cell-based; settings: 25 μg/ml cycloheximide or 8 μM emetine, after 5 hours; untreated cells below limit of detection
# Method: EL4 cells (10^8) were resuspended in 5 ml of culture media and incubated at 37° C. for 5 hours after being treated for one hour with emetine^16 or cycloheximide or heat shocked for 20 minutes at 45° C. (see FIG. 3J). 3T3 cells grown in 15 cm dishes were either untreated or exposed to UV light for 5 minutes and incubated in 5 hours. The cells were suspended without washing and disrupted by nitrogen cavitation followed by centrifugation, as described.^16 The resulting supernatants were diluted with 0.1 M borate, and analyzed for uric acid content using a uric acid detection kit (Molecular Probes).
# EL4 cells were either heat shocked for 20 minutes at 45° C., incubated with 25 μg/ml cycloheximide, incubated with 8 μM emetine or untreated as control. 3T3 cells were either UV-irradiated or untreated as control. These treatments were previously shown by the instant inventors to increase adjuvant activity. The amount of uric acid in the cytosol of the treated cells was determined after 5 hours of incubation. […] An approximately 4-fold increase in uric acid was also observed when 3T3 cells were treated with UV (FIG. 3J).
# [2] = test system: CD8 T cell (CTL) responses to particulate HIV gp120 antigen; test: CTL priming after co-injection with antigen in LPS-nonresponsive TLR4 null mice; assay type: in vivo, C.C3H lps-d (TLR4-/-) mice; settings: injected together with antigen
# Method: Lipopolysaccharide (LPS) has potent immunostimulatory activity and is a frequent contaminant of buffers and other reagents. Although every attempt was made to avoid contamination of preparations with endotoxin, it was important to exclude the possibility that LPS was present in the LMW fraction and responsible for the adjuvant activity. Accordingly, similar experiments to those of Example II were carried out except that purified LMW fraction or commercially-obtained highly purified uric acid was injected together with antigen into toll-like receptor 4 (TLR4) null mice, which are nonresponsive to LPS. Specifically, congenic C.C3H lps-d (TLR4−/−) mice were used in place of Balb/c (TLR4+/+) mice.
# [3] = Toxicity observed in the Examples; assay type: in vivo; settings: as used in the Examples
# Source text: With respect to potential toxicity of the crystalline adjuvant, local reaction to injections or other morbidity of animals immunized with any adjuvant within the scope of the invention, e.g., a crystalline adjuvant, can be readily determined. With respect to the crystalline adjuvants of the present invention displaying characteristics similar to uric acid or xanthine, significant toxicity is not expected. […] Uric acid and xanthine are normal components of mammals and local administration should be relatively safe. Uric acid is effective when injected subcutaneously, which is an effective and well tolerated immunization protocol. Uric acid and xanthine thus have favorable characteristics for an adjuvant, and crystalline molecules having similar characteristics, such as those described herein, are also expected to behave favorably as immune adjuvants.
# [4] = Precipitation of uric acid to MSU crystals; assay type: physicochemical; settings: uric acid 70 μg/ml
# Method: as §1
# As discussed in Example III, LPS has a stimulatory activity and is frequently a contaminant of reagents. Dendritic cells from the TLR4-null mice were examined to verify that LPS was not the source of the observed stimulatory activity. […]
# [5] = test system: bone marrow-derived dendritic cells (CD11c+); test: Expression of CD80 and CD86 on bone marrow-derived dendritic cells by flow cytometry; assay type: cell-based, Balb/c mice
# Method: as §1
# Accordingly, the effect of uric acid on expression of costimulators on cultured dendritic cells was tested. Uric acid was added to cultures of primary bone-marrow derived dendritic cells. Specifically, bone marrow-derived dendritic cells from Balb/c mice in 6 well plates were untreated (thin continuous line) or incubated with 20 μl of pre-formed MSU crystals (about 1.2 mg/ml final concentration) for 6 hours (heavy dashed lines) or 24 hours (heavy continuous lines). The expression of CD80 and CD86 on CD11c+ cells was then analyzed by flow cytometry.
# Based upon the results set forth in Examples I-VI which identify MSU crystals as having adjuvant activity, it was concluded that other crystals with similar properties should display djuvant activity. […] The expression of CD86 on CD11c+ cells was then analyzed by flow cytometry.
# [6] = reported (ref. 18); cited from earlier work
compound,measurement,setting,value
"O=c1[nH]c(=O)c2[nH]c([O-])nc2[nH]1.[Na+] [MSU crystals, monosodium urate]",activity of preformed crystals injected in vivo,[1]; preformed MSU crystals,active
same,stimulatory effect on dendritic cells from TLR4-null mice,dendritic cells; C.C3H lps-d (TLR4-/-) cells,the stimulatory effect was also found
same,"stimulatory effect on dendritic cells (CD80, CD86) compared with LPS",dendritic cells; MSU crystals about 1.2 mg/ml versus 1 μg/ml LPS,stronger than that induced by high concentrations of LPS
same,"stimulation of dendritic cells in vitro, preformed crystals versus soluble uric acid","dendritic cells; preformed MSU crystals about 1.2 mg/ml, soluble uric acid 70 μg/ml",highly stimulatory
C[C@@H]1C[C@@H]([C@H](O)CC2CC(=O)NC(=O)C2)C(=O)[C@@H](C)C1 [cycloheximide],uric acid in the cytosol of treated EL4 cells,EL4 cells,increased dramatically
CC[C@H]1CN2CCc3cc(OC)c(OC)cc3[C@@H]2C[C@@H]1C[C@H]1NCCc2cc(OC)c(OC)cc21 [emetine],uric acid in the cytosol of treated EL4 cells,EL4 cells,increased dramatically
O=c1[nH]c(=O)c2[nH]c(=O)[nH]c2[nH]1 [uric acid],CTL priming,[1]; 50 μg uric acid mixed with 5 μg gp120/latex beads in 100 μl saline,enhanced CTL priming to a similar degree as the purified LMW fraction
same,adjuvant effect,[1]; 10-50 μg of uric acid in 100 μl,strong adjuvant effect
same,amount of uric acid providing an adjuvant effect when injected in vivo,[1]; titrated from 2.5-40 μg in 100 μl,about 10 μg
same,concentration of uric acid providing an adjuvant effect when injected in vivo,"[1]; titrated from 25-400 μg/ml, 100 μl injected",~100 µg/mL
same,adjuvant activity in LPS-nonresponsive mice,[2],had adjuvant activity
same,toxicity,[3],have not been observed
same,crystal precipitation in dendritic cell culture,[4],crystals do not precipitate within 6 hours
same,expression of CD86 on CD11c+ dendritic cells,"[5]; 20 μl pre-formed MSU crystals (about 1.2 mg/ml final), 6 or 24 hours",markedly and rapidly
same,correlation of dendritic cell activation (CD86) with crystal formation,"[5]; uric acid titrated in culture, 24 hours",stimulated at precisely the concentrations of uric acid that led to crystal formation
same,concentration at which uric acid precipitates in vivo,[6],> 70 µg/mL
O=c1[nH]c(=O)c2[nH]cnc2[nH]1 [xanthine],CTL priming,[1]; 500 μg crystals mixed with 2 μg gp120/latex beads in 100 μl saline,enhanced CTL priming to a similar degree as the MSU crystals
same,toxicity,[3],have not been observed
same,expression of CD86 on CD11c+ dendritic cells,"[5]; pre-formed crystals at 300 μg/ml final concentration, 6 hours",increase their expression of CD86 markedly

# — US8597664B2, “Endogenous adjuvant molecules and uses thereof” (University of Massachusetts, priority 2003, dated 2013)
